Data as given in patent publication US6780871B2, “Methods and compositions for treating addiction disorders” (Albany Medical College, priority 2001, dated 2004).

Key:
Format in all cases: cell-based
[1] = biological target: T1, 5-HT3A receptors (Mus musculus, UniProt P23979); test: whole-cell patch-clamp of transfected HEK293 cells, 5-HT3A, 100 μM serotonin
T1 construct: expressed in transfected cells; host or cells: HEK293 (ATCC CRL1573), transient transfection
T1 sequence (P23979 24-489): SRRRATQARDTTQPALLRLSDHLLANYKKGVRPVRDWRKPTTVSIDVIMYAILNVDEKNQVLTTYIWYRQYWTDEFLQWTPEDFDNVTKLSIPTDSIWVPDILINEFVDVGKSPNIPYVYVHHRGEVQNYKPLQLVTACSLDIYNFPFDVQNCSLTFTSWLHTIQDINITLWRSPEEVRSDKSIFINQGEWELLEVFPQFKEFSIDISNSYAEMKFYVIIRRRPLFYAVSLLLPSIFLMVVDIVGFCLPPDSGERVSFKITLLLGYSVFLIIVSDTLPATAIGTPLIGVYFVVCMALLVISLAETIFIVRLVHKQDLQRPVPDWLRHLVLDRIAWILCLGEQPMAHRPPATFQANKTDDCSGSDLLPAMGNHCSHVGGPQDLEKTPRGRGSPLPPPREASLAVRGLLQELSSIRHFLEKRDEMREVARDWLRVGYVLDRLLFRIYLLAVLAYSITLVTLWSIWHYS
Method: (§1) Human embryonic kidney 293 (HEK293) fibroblasts (ATCC CRL1573) were cultured in minimal essential medium supplemented with 10% fetal bovine serum and 2 mM glutamine (Life Technologies, Rockville, Md.). Cells were plated on poly-D-lysine-coated 35 mm nunc dishes, transfected by the LipofectaminePLUS method (Life Technologies), and examined functionally between 18-48 h post transfection. The following receptor subunit cDNAs were used: nAChR-α3 (nicotinic acetylcholine receptor-α3; accession no. L31621), nAChR-α4 (accession no. L31620), nAChR-β2 (accession no. L31622), nAChR-β4 (accession no. U42976), 5-HT3R-A (5-HT3A receptor; accession no. M74425), NR1 (N-methyl-D-aspartate receptor 1; accession no. X63255), NR2A (accession no. X91561), and NR2B (accession no. M91562). The nAchR and NR clones were rat; the 5-HT3R-A clone was mouse. Co-transfection of enhanced green fluorescent protein (“EGFP”) (10% of total cDNA) provided a marker to identify transfected cells. Transfected cells were selected for EGFP expression and examined by voltage-clamp recording in the whole-cell configuration using an Axopatch 200B patch-clamp amplifier (Axon Instruments, Foster City, Calif.). Thin-walled borosilicate glass microelectrodes (TW150F, World Precision Instruments, Sarasota, Fla.) had resistances of 3-5 MΩ when filled with an internal solution containing (in mM): 135 CsCl, 10 CsF, 10 HEPES (N-[2-hydroxyethyl]piperazine-N′-[2-ethanesulfonic acid]), 5 EGTA (ethylene glycol-bis[β-aminoethyl ether]-N,N,N′,N′-tetraacetic acid), 1 MgCl2, 0.5 CaCl2, pH 7.2. Whole-cell capacitance and series resistance were recorded and adequately compensated using the available circuitry of the amplifier. Current responses were filtered at 1 kHz with an 8-pole Bessel filter (Cygnus Technologies, Delaware Water Gap, Pa.), digitized at 3 kHz, and stored on a Macintosh PowerPC-G3 computer using an ITC-16 interface (Instrutech, Great Neck, N.Y.) under control of the data acquisition and analysis program Synapse (Synergy Research, Gaithersburg, Md.). Cells were continuously superfused with extracellular solution containing (in mM): 150 NaCl, 3 KCl, 5 HEPES, 1 MgCl2, 1.8 CaCl2, 10 glucose, and 0.1 mg/ml phenol red, pH 7.3 (MgCl2 was omitted from all solutions used for the study of NMDA receptors). […] Control, agonist, and drug solutions were applied to individual cells by rapid perfusion. Solutions were driven by a syringe pump through a flowpipe having 4 inputs that converge at a single common output of approximately 100 μm diameter. Rapid switching between inputs was achieved using a set of upstream solenoid valves (Lee Co., Westbrook, Conn.) under computer control; the solution exchange rate was ˜5 ms as measured from liquid junction currents.
Transfected HEK293 cells expressing 5-HT3A receptors were voltage-clamped to −70 mV and stimulated with 100 μM serotonin at 30 s intervals. […] This is shown in FIG. 4, where open bars depict the timing of agonist application, filled bars depict the timing of co-application of 20 μM IBO or 20 μM 18MC, and inhibition was measured relative to control at the end of the drug application (indicated by arrows).

[2] = biological target: T2, nACh receptors (Rattus norvegicus, UniProt P09483+P12390); test: whole-cell patch-clamp of transfected HEK293 cells, neuronal nACh receptors, 300 μM ACh; conditions: 300 μM ACh, estimated from 5 and 20 μM data; read-out: IC50 suggested by the inhibition data
T2 construct: expressed in transfected cells; host or cells: HEK293 (ATCC CRL1573), transient transfection
T2 sequence (P09483 31-630): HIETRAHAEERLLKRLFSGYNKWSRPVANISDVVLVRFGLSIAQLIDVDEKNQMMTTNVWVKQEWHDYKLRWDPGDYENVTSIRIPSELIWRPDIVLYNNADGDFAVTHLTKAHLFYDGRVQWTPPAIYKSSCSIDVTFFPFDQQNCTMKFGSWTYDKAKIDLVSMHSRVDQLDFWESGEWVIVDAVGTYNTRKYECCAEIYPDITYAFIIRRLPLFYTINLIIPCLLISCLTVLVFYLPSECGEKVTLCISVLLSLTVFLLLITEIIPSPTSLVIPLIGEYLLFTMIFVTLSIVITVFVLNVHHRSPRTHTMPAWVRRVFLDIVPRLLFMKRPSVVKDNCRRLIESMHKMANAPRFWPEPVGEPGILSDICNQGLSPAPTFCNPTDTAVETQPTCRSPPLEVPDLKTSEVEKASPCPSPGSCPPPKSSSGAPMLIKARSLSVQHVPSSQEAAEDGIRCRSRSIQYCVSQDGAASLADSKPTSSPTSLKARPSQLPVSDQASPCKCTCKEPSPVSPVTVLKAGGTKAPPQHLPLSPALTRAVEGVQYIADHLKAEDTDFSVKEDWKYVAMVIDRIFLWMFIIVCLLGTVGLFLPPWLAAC
T2 sequence (P12390 25-500): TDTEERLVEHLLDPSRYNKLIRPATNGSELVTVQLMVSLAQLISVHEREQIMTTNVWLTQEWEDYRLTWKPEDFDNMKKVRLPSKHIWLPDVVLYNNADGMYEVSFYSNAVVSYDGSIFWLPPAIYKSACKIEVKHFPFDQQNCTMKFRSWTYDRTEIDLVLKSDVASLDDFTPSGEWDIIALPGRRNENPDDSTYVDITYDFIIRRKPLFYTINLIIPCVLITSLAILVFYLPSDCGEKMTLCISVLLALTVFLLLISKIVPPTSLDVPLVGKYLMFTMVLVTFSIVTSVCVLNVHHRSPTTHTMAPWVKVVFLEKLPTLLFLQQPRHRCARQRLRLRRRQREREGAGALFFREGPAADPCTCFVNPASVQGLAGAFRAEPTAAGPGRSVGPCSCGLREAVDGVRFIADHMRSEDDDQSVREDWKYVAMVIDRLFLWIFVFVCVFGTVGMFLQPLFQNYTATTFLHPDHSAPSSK
Method: as §1
(§2) Transfected HEK293 cells expressing various receptor subunit cDNAs were examined by whole-cell patch-clamp recording with fast perfusion of agonist and drug solutions. […] Transfected HEK293 cells expressing α3β4 nACh receptors were voltage-clamped to −70 mV and stimulated with 1 mM ACh at 30 s intervals. […] In FIG. 1A, open bars depict the timing of ACh application; filled bars depict the timing of co-application of 20 μM IBO or 20 μM 18MC; and inhibition was measured relative to control at the end of the drug application (indicated by arrows). […] The data presented in FIG. 1B are mean±SEM for 3-14 cells per point, and curve fits are given for the logistic equation: I=Imax/(1+([drug]/IC50)). […] In this case, transfected HEK293 cells expressing α3β4 nACh receptors were voltage-clamped to −70 mV and stimulated with 300 μM ACh at 30 s intervals.

[3] = biological target: T3, α3β4 nACh receptors (Rattus norvegicus, UniProt P09483+P12390); test: as above
T3 construct: expressed in transfected cells; host or cells: HEK293 (ATCC CRL1573), transient transfection
T3 sequence (P09483 31-630): as the sequence (P09483 31-630) above
T3 sequence (P12390 25-500): as the sequence (P12390 25-500) above
Method: as §1, §2

`COCC[C@H]1CC2CN3CCc4c([nH]c5ccccc45)[C@](C(=O)OC)(C2)[C@H]13` [18-methoxycoronaridine] was tested, and the “response to drug applied alone (agonist activity)” value ([1]; 20 μM drug alone) was “did not produce any response”, the “inhibition of serotonin-evoked responses” value ([1]; 20 μM drug with 100 μM serotonin, FIG. 4) was 50±3% and the IC50 ([1]; approximate, from 20 μM data, read-out: IC50 at 5-HT3 receptors) was about 20 µM. For the same compound, the IC50 [2] was over 20 µM, the “inhibition of ACh-evoked response” value ([3]; 5 μM drug with 300 μM ACh) was “no apparent inhibition” and the “response to drug applied alone (agonist activity)” value ([3]; 20 μM drug alone, -70 mV) was “did not produce any response”. For the same compound, the “inhibition of ACh-evoked response” value ([3]; 20 μM drug with 300 μM ACh, FIG. 2) was 8 ±4%.
